Results from patent US8912124B2, “Use of derivatives of (1-cyanocyclopropyl)phenylphosphinic acid, esters thereof and/or salts thereof for enhancing tolerance in plants to abiotic stress” (Bayer Cropscience AG, priority 2010, dated 2014).

How the values were obtained:
Type in all cases: in vivo
BRSNS=Brassica napus = experiment: Drought stress test on crop plants, spray application, efficacy (EF) on Brassica napus; conditions: percentage reduction in intensity of damage, mean of three results
Method: (§1) Seeds of monocotyledonous and dicotyledonous crop plants were placed in sandy loam in wood-fiber pots, covered with soil and cultivated in a greenhouse under good growth conditions. The test plants were treated at the early leaf stage (BBCH10-BBCH13). To ensure uniform water supply before commencement of stress, the potted plants were supplied with the maximum amount of water immediately beforehand by dam irrigation and, after application, transferred in plastic inserts in order to prevent subsequent, excessively rapid drying. The inventive compounds, formulated in the form of wettable powders (WP), wettable granules (WG), suspension concentrates (SC) or emulsion concentrates (EC), were sprayed onto the green parts of the plants as an aqueous suspension at an equivalent water application rate of 600 I/ha with addition of 0.2% wetting agent (agrotin). Substance application was followed immediately by stress treatment of the plants (cold or drought stress). For cold stress treatment, the plants are kept under the following controlled conditions: • “day”: 12 hours with illumination at 8° C. • “night”: 12 hours without illumination at 1° C.
(§2) Drought stress is induced by gradual drying out under the following conditions: • “day”: 14 hours with illumination at 26° C. • “night”: 10 hours without illumination at 18° C.
The duration of the respective stress phases was guided mainly by the state of the untreated, stressed control plants and thus varied from crop to crop. It was ended (by re-irrigating or transfer to a greenhouse with good growth conditions) as soon as irreversible damage was observed on the untreated, stressed control plants. In the case of dicotyledonous crops, for example oilseed rape and soya, the duration of the drought stress phase varied between 3 and 5 days, in the case of monocotyledonous crops, for example wheat, barley or corn, between 6 and 10 days. The duration of the cold stress phase varied between 12 and 14 days.
The end of the stress phase was followed by an approx. 5-7-day recovery phase, during which the plants were once again kept under good growth conditions in a greenhouse. In order to rule out any influence of the effects observed by any fungicidal action of the test compounds, it was additionally ensured that the tests proceed without fungal infection and without infection pressure.
After the recovery phase had ended, the intensities of damage were rated in visual comparison to untreated, unstressed controls of the same age (in the case of drought stress) or the same growth stage (in the case of cold stress). The intensity of damage was first assessed as a percentage (100%=plants have died, 0%=like control plants). These values were then used to calculate the efficacy of the test compounds (=percentage reduction in the intensity of damage as a result of substance application) by the following formula: […]
DVus: damage value of the untreated, stressed control
DVts: damage value of the plants treated with test compound
Tables A.1, A.2 and A.3 show the efficacies of selected inventive compounds of the formula (I) and of the formula (II) on different crop plants (BRSNS=Brassica napus (A.1;) TRZAS=Triticum aestivum (A.2); ZEAMX=Zea mays (A.3) under drought stress.
The values stated each represent mean values from three results of the same test.

TRZAS=Triticum aestivum = experiment: Drought stress test on crop plants, spray application, efficacy (EF) on Triticum aestivum; conditions: dosage 25 g/ha, percentage reduction in intensity of damage, mean of three results
Method: Seeds of monocotyledonous and dicotyledonous crop plants were placed in sandy loam in wood-fiber pots, covered with soil and cultivated in a greenhouse under good growth conditions. The test plants were treated at the early leaf stage (BBCH10-BBCH13). To ensure uniform water supply before commencement of stress, the potted plants were supplied with the maximum amount of water immediately beforehand by dam irrigation and, after application, transferred in plastic inserts in order to prevent subsequent, excessively rapid drying. The inventive compounds, formulated in the form of wettable powders (WP), wettable granules (WG), suspension concentrates (SC) or emulsion concentrates (EC), were sprayed onto the green parts of the plants as an aqueous suspension at an equivalent water application rate of 600 I/ha with addition of 0.2% wetting agent (agrotin). Substance application was followed immediately by stress treatment of the plants (cold or drought stress). […]
(§3) After the recovery phase had ended, the intensities of damage were rated in visual comparison to untreated, unstressed controls of the same age (in the case of drought stress) or the same growth stage (in the case of cold stress). The intensity of damage was first assessed as a percentage (100%=plants have died, 0%=like control plants). […]

ZEAMX=Zea mays = experiment: Drought stress test on crop plants, spray application, efficacy (EF) on Zea mays; conditions: percentage reduction in intensity of damage, mean of three results
Method: as §1, §2
The duration of the respective stress phases was guided mainly by the state of the untreated, stressed control plants and thus varied from crop to crop. It was ended (by re-irrigating or transfer to a greenhouse with good growth conditions) as soon as irreversible damage was observed on the untreated, stressed control plants. […]
as §3

Row | Structure (SMILES) | EF (BRSNS) (BRSNS=Brassica napus; dosage 25 g/ha) | further results
1 | CC(C)COP(=O)(c1ccccc1)C1(C#N)CC1 (stereo not shown) [Compound 2-135] | >5% | EF (TRZAS) (TRZAS=Triticum aestivum): >5%
2 | CCCOP(=O)(c1ccccc1F)C1(C#N)CC1 (stereo not shown) [Compound 2-158] | >5% | EF (ZEAMX) (ZEAMX=Zea mays; dosage 250 g/ha): >5%
3 | CCOP(=O)(c1cccc(C(=O)O)c1)C1(C#N)CC1 (stereo not shown) [Compound 2-34] | >5% | 
4 | CCOC(=O)c1cccc(P(=O)(OCC)C2(C#N)CC2)c1 (stereo not shown) [Compound 2-37] | >5% | 
5 | CCCOP(=O)(c1ccccc1)C1(C#N)CC1 (stereo not shown) [Compound 2-130] | >5% | EF (ZEAMX) (ZEAMX=Zea mays; dosage 25 g/ha): >5%
6 | CCOP(=O)(c1cccc(OC)c1)C1(C#N)CC1 (stereo not shown) [Compound 2-19] | >5% | 
7 | CCOP(=O)(c1ccc(C)cc1)C1(C#N)CC1 (stereo not shown) [Compound 2-17] |  | EF (BRSNS) (BRSNS=Brassica napus; dosage 250 g/ha): >5%
8 | CCOP(=O)(c1ccccc1OC)C1(C#N)CC1 (stereo not shown) [Compound 2-18] | >5% | 
9 | CCOP(=O)(c1cccc(C)c1)C1(C#N)CC1 (stereo not shown) [Compound 2-16] |  | EF (BRSNS) (BRSNS=Brassica napus; dosage 250 g/ha): >5%
10 | CCOP(=O)(c1ccccc1)C1(C#N)CC1 (stereo not shown) [Compound 2-2, ethyl (1-cyanocyclopropyl)phenylphosphinate] | >5% | EF (TRZAS) (TRZAS=Triticum aestivum): >5%
11 | N#CC1(P(=O)(OC2CCCCC2)c2ccccc2)CC1 (stereo not shown) [Compound 2-142] | >5% | 
12 | N#CC1(P(=O)(OCc2ccccc2)c2ccccc2)CC1 (stereo not shown) [Compound 2-155] | >5% | EF (ZEAMX) (ZEAMX=Zea mays; dosage 25 g/ha): >5%
13 | CCOP(=O)(c1cc(Cl)cc(Cl)c1)C1(C#N)CC1 (stereo not shown) [Compound 2-111] | >5% | 
14 | CCCOP(=O)(c1ccccc1Cl)C1(C#N)CC1 (stereo not shown) [Compound 2-159] | >5% | 
